In patent US20160113925A1, “METHODS OF TREATING CANCER WITH A COMBINATION OF GLUCOSE MODULATORS AND BCL-2 INHIBITORS” (EMORY UNIVERSITY, priority 2014, published 2016):
Where a name gives a salt, the structure may show the parent alone.

How the values were obtained:
Assay type in all cases: cell-based
[1] = test system: L363, KMS11, MM.1S and AMO1 cell lines; assay: Metabolic supplementation of glutamine deprived MM cell lines: reversal of sensitization to ABT-199; conditions: glutamine deprived L363, KMS11, MM.1S and AMO1 cell lines supplemented with metabolite
Description: The metabolic specificity of glutamine deprivation-induced sensitization to ABT-199 […]. Glutamine deprived cells were supplemented with various metabolites generated by metabolism of glutamine and evaluated for their ability to reverse sensitization to ABT-199. Glutamine deprived MM cell lines were supplemented with galactose, dimethyl fumarate, dimethyl succinate, oxaloacetic acid, 2 methyl pyruvate, a mixture of non-essential amino acids or cell permeant dimethyl alpha ketoglutarate (DMK).

[2] = test system: MM patient samples; assay: Sensitization of MM patient samples to ABT-199 (venetoclax) by ritonavir or DON; conditions: for efficacy of the combination with ABT-199 (venetoclax) in patient samples: highly responsive samples were from relapse refractory patients
Description: (§1) Ritonavir is an HIV […] that is also a reversible non-competitive inhibitor of glucose transport through GLUT4. […] Glutamine antagonist DON (6-Diazo-5-oxo-L-norleucine) effectively block first step of glutaminolysis pathway and thus restrict cells for using glutamine.

[3] = test system: MM cell lines; assay: Sensitization of MM cell lines to ABT-199 (venetoclax) by ritonavir or DON; conditions: MM cell lines cultured with ritonavir (40 uM) or DON (0.1 mM); FIGS. 1 and 2
Description: as §1

[4] = test system: MM lines; assay: Impact of glucose or glutamine withdrawal on sensitivity of MM lines to ABT-199 (venetoclax)
Protocol: Eight MM cell lines were assessed for induction of apoptosis upon culture in media deprived of glucose, glutamine or both nutrients. While all cells are growth inhibited the extent of apoptosis elicited was highly variable. […] Continued survival upon nutrient deprivation despite induction of BIM could be due to increased sequestration of BIM with the induced BCL-2. […] The BH3 mimetic ABT-199 (venetoclax) targets the BIM-BCL-2 interaction. The impact of either glucose or glutamine withdrawal on sensitivity to ABT-199 (venetoclax) was evaluated.

Molecule: COC(=O)C(C)=O [2 methyl pyruvate]
- reversal of glutamine deprivation-induced sensitization to ABT-199 [1]: only the addition of DMK reversed sensitization

Molecule: COC(=O)CCC(=O)C(=O)OC [DMK, dimethyl alpha ketoglutarate]
- reversal of glutamine deprivation-induced sensitization to ABT-199 [1]: reversed sensitization

Molecule: [N-]=[N+]=CC(=O)CC[C@H](N)C(=O)O [DON, 6-Diazo-5-oxo-L-norleucine]
- sensitivity to ABT-199 (venetoclax) in patient samples [2]: increased sensitivity
- efficacy of the combination with ABT-199 (venetoclax) in patient samples [2]: highly efficacious
- sensitivity to ABT-199 (venetoclax) in MM cell lines [3]: increased sensitivity

Molecule: CC(C)c1nc(CN(C)C(=O)N[C@H](C(=O)N[C@@H](Cc2ccccc2)C[C@H](O)[C@H](Cc2ccccc2)NC(=O)OCc2cncs2)C(C)C)cs1 [Ritonavir, 1,3-thiazol-5-ylmethyl N-[(2S,3S,5S)-3-hydroxy-5-[[(2S)-3-methyl-2-[[methyl-[(2-propan-2-yl-1,3-thiazol-4-yl)methyl]carbamoyl]amino]butanoyl]amino]-1,6-diphenylhexan-2-yl]carbamate]
- sensitivity to ABT-199 (venetoclax) in patient samples [2]: significantly increased sensitivity
- efficacy of the combination with ABT-199 (venetoclax) in patient samples [2]: highly efficacious
- sensitivity to ABT-199 (venetoclax) in MM cell lines [3]: significantly increased sensitivity

Molecule: COC(=O)/C=C/C(=O)OC [dimethyl fumarate]
- reversal of glutamine deprivation-induced sensitization to ABT-199 [1]: only the addition of DMK reversed sensitization

Molecule: COC(=O)CCC(=O)OC [dimethyl succinate]
- reversal of glutamine deprivation-induced sensitization to ABT-199 [1]: only the addition of DMK reversed sensitization

Molecule: O=C[C@H](O)[C@@H](O)[C@@H](O)[C@H](O)CO [galactose]
- reversal of glutamine deprivation-induced sensitization to ABT-199 [1]: only the addition of DMK reversed sensitization

Molecule: O=C(O)CC(=O)C(=O)O [oxaloacetic acid]
- reversal of glutamine deprivation-induced sensitization to ABT-199 [1]: only the addition of DMK reversed sensitization

Molecule: venetoclax [ABT-199 (venetoclax)]
- sensitization of MM lines to ABT-199 (venetoclax) on nutrient withdrawal [4]: sensitize all MM lines
